# Test results as given in patent US5688767A, “Treatment of endotoxin-associated disorders with cationic peptides” (priority 1996, dated 1997).
# Experiments:
# [1] = system: LPS-induced TNF in RAW 264.7 cells; experiment: Preincubation of RAW cells with peptide, wash, and supernatant transfer before LPS; type: cell-based, murine; conditions: for depression of TNF induction by aspirated medium containing CEMA: fresh RAW cells
# Protocol: In order to determine how rapidly CEMA reduced LPS-induced TNF production, E. coli 0111:B4 or Bort LPS was added at time 0 to RAW macrophages. CEMA or Polymyxin B was added at time 0, 30 and 60 minutes. Levels of TNF were measured after 6 hours. […] To confirm that CEMA was acting on LPS rather than directly upon macrophage cell lines, 20 μg of CEMA was added to RAW cells and incubated for 60 minutes prior to aspiration of the medium and washing the cells 3 times with HBSS (Hanks Buffered Salt Solution).
# To ensure that the cationic peptides were interacting with the LPS rather than the cell lines, […], and after incubation at 37° C. in 5% CO2 for 60 minutes, the supernatant was removed and added to a second well of untreated RAW 264.7 cells. Fresh medium was added to the peptide-treated RAW cells and 100 ng/ml of LPS was then added to both the peptide-treated cells and those reconstituted with supernatant, and these wells assayed for TNF production after 6 hours incubation at 37° C. in 5% CO2.
# Both CEME and CEMA were reproducibly able to inhibit the induction, by E. coli 0111:B4 LPS, of TNF secretion by RAW 264.7 cells (Table 10). […] Virtually the same results were obtained with E. coli Bort LPS and in preliminary experiments with P. aeruginosa strain H 103 LPS. […] In contrast the supernatants from these preincubations (which presumably contained the peptides) when added to fresh RAW 264.7 cells, were able to suppress the ability of these cells to induce TNF in response to LPS stimulation, producing only 4451 units per ml;.
# [2] = system: Acinetobacter calcoaceticus 8193; experiment: MIC against Gram-negative bacteria; type: cell-based
# From the text: (§1) Bacteria included the Bort strain of E. coli (Bortolussi, et al., Inf. Immun., 25:293, 1979) that was originally derived from a case of neonatal meningitis, and which is therefore considered a relevant pathogenic strain to study, and the 0111:B4 strain of E. coli (kindly provided by Dr. D. Morrison) which is a standard source of endotoxin. (Kelly, et al., Inf. Immun., 59:4491, 1991). In addition, P. aeruginosa PA01 strain H103, P. aeruginosa M2, P. aeruginosa K799, Eschericha coli UB 1005, Enterobacter cloacae 218S, Salmonella typhimurium MS7953s, Klebsiella pneumoniae ATCC 13883, Xanthomonas maltophilia ATCC 13637, and Acinetobacter calcoacetious 8193 were employed. LPS was obtained from E. coli Bort by the technique of Westphal and Jann, (Westphal, et al., Acad. Press, Inc. NY., 5:83) and from P. aeruginosa H103 by the method of Darveau and Hancock, (Darveau, et al., J. Bacteriol, 155:831, […]). E. coli 0111:B4 LPS was purchased from Sigma.
# [3] = system: Xanthomonas maltophilia ATCC 13637; experiment: MIC against Gram-negative bacteria; type: cell-based
# From the text: as §1
# [4] = system: Klebsiella pneumoniae ATCC 13883; experiment: MIC against Gram-negative bacteria; type: cell-based
# From the text: as §1
# LPS-induced endotoxemia = experiment: Protection from lethal LPS endotoxicity in galactosamine-sensitized mouse endotoxic shock model; type: in vivo, mice; conditions: for % Mortality / dead/total: LPS 10 ug
# Protocol: The ability of CEME and CEMA to protect against LPS-induced endotoxemia was assessed in vivo. Mice (8-10 weeks old) were injected intraperitoneally with […] D-galactosamine (Dgal) to sensitize them to LPS according to the mode of Galanos (Galanos, et al., Proc. Natl. Acad. Sci., USA, 76:5939-5943, 1979), followed by 0, 50, 100, or 200 μg CEME or CEMA in 100 μl. Immediately afterwards LPS (10 or 20 μg) in 100 μl was injected.
# Mice are naturally resistant to LPS. […] Endotoxic shock was induced by intraperitoneal injection of 10 or 20 μg of E. coli 0111:B4 LPS in phosphate-buffered saline (PBS), pH 7.2 into galactosamine-sensitized 8-10 week old female CD-1 mice (Galanos, C., supra; Freudenberg, M. A., Inf. Immun., 51:891, 1986). In experiments involving peptides, 50-200 μg in 100 μl sterile water injected at separate intraperitoneal sites immediately before or after LPS injection. In survival experiments, survival was monitored at 24 to 48 hours post injection. In experiments measuring TNF, blood was withdrawn by cardiac puncture at timed intervals up to 8 hours after the injections and allowed to clot prior to measurement of TNF in the serum.
# In contrast when CEMA was injected at around the same time as LPS, but at separate site in the peritoneum, it protected mice in a dose dependant fashion (FIG. 17). Endotoxemia was induced with 10 μg of E. coli 0111:B4 LPS injected into the peritoneum. Subsequently 50, 100, or 200 μg (2.2, 4.4, and 8.7 mg/kg) of CEME or CEMA was injected into a separate site in the peritoneum. […] mice were assessed for each experimental point. Mortality was observed after 24 hrs.
# P. aeruginosa strain M2 = experiment: Survival of neutropenic mice challenged intraperitoneally with bacteria; type: in vivo, Pseudomonas aeruginosa
# Protocol: To measure the anti-bacterial effect of peptides, a similar strategy was employed. Female CD-1 mice were rendered neutropenic with 3 injections of cyclophosphamide as described previously. (Cryz, S. J., Inf. Immun., 39(2): 1067, 1983) An […] dose of Pseudomonas aeruginosa strain M2 (approximately 10^2 organisms per mouse) was injected intra peritoneally and in the single dose experiments, 100 μl of PBS or sterile water containing 200 μg (8.7 mg/kg) of a cationic peptide was injected immediately afterwards. […] Survival was recorded at 24 and 48 hours.
# [5] = single dose 200 μg (8.7 mg/kg) i.p.
# [6] = two injections at 2 hours and 12 hour after P. aeruginosa
smiles,measurement,setting,value
CC[C@H](C)[C@H](NC(=O)CNC(=O)[C@@H](NC(=O)[C@H](CCCCN)NC(=O)[C@H](CCCCN)NC(=O)[C@H](Cc1ccccc1)NC(=O)[C@H](CC(C)C)NC(=O)[C@H](CCCCN)NC(=O)[C@H](Cc1c[nH]c2ccccc12)NC(=O)[C@@H](N)CCCCN)[C@@H](C)CC)C(=O)NCC(=O)N[C@@H](C)C(=O)N[C@H](C(=O)N[C@@H](CC(C)C)C(=O)N[C@@H](CCCCN)C(=O)N[C@H](C(=O)N[C@@H](CC(C)C)C(=O)N[C@H](C(=O)N[C@H](C(=O)NCC(=O)N[C@@H](CC(C)C)C(=O)N1CCC[C@H]1C(=O)N[C@@H](C)C(=O)N[C@@H](CC(C)C)C(=O)N[C@@H](CCCCN)C(=O)N[C@@H](CC(C)C)C(=O)N[C@H](C(=O)N[C@@H](CCCCN)C(=O)O)[C@@H](C)O)[C@@H](C)O)[C@@H](C)O)C(C)C)C(C)C [CEMA],TNF induction in washed RAW cells,"[1]; 20 μg CEMA preincubated 60 minutes, washed 3 times, then 10 ng or 100 ng of LPS","14,000-20,000 Units of TNF per ml"
same,TNF induction in peptide-preincubated RAW 264.7 cells,"[1]; CEMA 20 μg/ml preincubated 60 minutes, supernatant removed, fresh medium and 100 ng/ml E. coli 0111:B4 LPS",19062 Units per ml
same,depression of TNF induction by aspirated medium containing CEMA,[1]; 10 ng E. coli Bort LPS,98.5%
same,depression of TNF induction by aspirated medium containing CEMA,[1]; 100 ng E. coli Bort LPS,75%
same,TNF induction in fresh RAW 264.7 cells given preincubation supernatants,"[1]; supernatants from CEMA 20 μg/ml preincubations, LPS stimulation",4451 units per ml
same,MIC,[2],1 µg/mL
same,MIC,[3],12 µg/mL
same,MIC,[4],12 µg/mL
same,survival,"LPS-induced endotoxemia; 10 μg E. coli 0111:B4 LPS, peptide 50 μg",60%
same,survival,"LPS-induced endotoxemia; 10 μg E. coli 0111:B4 LPS, peptide 100 μg",75%
same,survival / mice protected,"LPS-induced endotoxemia; 10 μg E. coli 0111:B4 LPS, peptide 200 μg (8.7 mg/kg)",78%
same,% Mortality,LPS-induced endotoxemia; peptide 50 ug,40%
same,dead/total,LPS-induced endotoxemia; peptide 50 ug,2/5
same,% Mortality,LPS-induced endotoxemia; peptide 100 ug,25%
same,dead/total,LPS-induced endotoxemia; peptide 100 ug,2/8
same,% Mortality,LPS-induced endotoxemia; peptide 200 ug,22%
same,dead/total,LPS-induced endotoxemia; peptide 200 ug,2/9
same,Survival (%),P. aeruginosa strain M2; [5],43.3%
same,Survival (survivors/total),P. aeruginosa strain M2; [5],13/30
same,Survival (%),P. aeruginosa strain M2; [6],55.0%
same,Survival (survivors/total),P. aeruginosa strain M2; [6],11/20
